Consider 5 compounds from patent publication US8735152B2, “Methods for inducing cell death in pluripotent stem cells and differentiated cells other than cardiac myocytes” (Daiichi Sankyo Company, Limited, priority 2009, dated 2014).

In series [1] the test system is human embryonic stem cell-derived embryoid bodies. In words: Cell death inducing effect on residual stem cells in human embryonic stem cell-derived embryoid bodies and enrichment of cardiomyocytes. The settings on record: 0.45 M or 0.6 M. It counts as cell-based. Here is the method: After passaging, human embryonic stem cells were subjected to suspension culture in a culture medium [α-MEM (minimum essential medium) (SIGMA), supplemented with 10% FBS (EQUITEC BIO), 100 units/ml penicillin, and 50 μg/ml streptomycin (GIBCO)] to induce formation of embryoid bodies. At 14-18 days after the start of differentiation (the start of suspension culture), autonomously pulsating cells started to differentiate, which was confirmed in a separate step that they were cardiomyocytes.
The embryoid bodies still maintained an autonomously pulsating ability after the passage of 3 months from the start of differentiation. They were partially treated with 0.1% collagenase (Wortington) and 0.1% trypsin (DIFCO) to be dispersed as fine cell masses. The cell masses were divided into two groups; one group was treated with 0.45 M mannitol (approximately equivalent to 720 mOsm/kg) for 2 hours, and the other group (control) was not treated with mannitol but treated with the same amount of a solution having the physiological osmotic pressure, Ads buffer (116.4 mM NaCl, 5.4 mM KCl, 5.6 mM dextrose, 10.9 mM NaH2PO4, 405.7 μM MgSO4, 20 mM Hepes, pH 7.3) for 2 hours. After the treatment, both cell groups were subjected to adherent culture for 3 days in a DMEM solution supplemented with 10% fetal calf serum.
The mannitol-treated cells and the control cells were analyzed in accordance with the experimental procedure of Example 1 using a mouse anti-Oct-3/4 monoclonal antibody (No. 084720 of BD Transduction Laboratories) and a goat anti-Nkx 2.5 antibody (No. N-19 of Santacruz) as primary antibodies, for the expression of the Oct-3/4 protein which was both a marker of embryonic stem cells and an intranuclear transcription factor, and for the expression of the Nkx 2.5 protein which was both a cardiomyocyte marker and an intranuclear transcription factor, respectively. The results for the control group, one of the two divided samples, are shown in FIG. 10 and the results for the test group subjected to 2-hr treatment with mannitol are shown in FIG. 11. The upper panels of FIG. 10 show the results of cardiomyocytes and the lower panels show the results of embryonic stem cells.
The embryoid bodies still maintained an autonomously pulsating ability after the passage of 3 months from the start of differentiation. They were partially treated with 0.1% collagenase (Wortington) and 0.1% trypsin (DIFCO) to be dispersed as fine cell masses. The cell masses were divided into two groups; one group was treated with saccharides (sugar alcohols: sorbitol, xylitol, and glycerol; sugars: sucrose and glucose; betaines: trimethylglycine) for 12 hours in an amount of 0.45 M (approximately equivalent to 700-780 mOsm/kg) or 0.6 M (approximately equivalent to 850-1000 mOsm/kg), and the other group (control) was not treated with those saccharides but treated with the same amount of a solution having the physiological osmotic pressure, Ads buffer (116.4 mM NaCl, 5.4 mM KCl, 5.6 mM dextrose, 10.9 mM NaH2PO4, 405.7 μM MgSO4, 20 mM Hepes, pH 7.3) for 2 hours. After the treatment, both cell groups were cultured for 12 hours in a DMEM solution supplemented with 10% fetal calf serum.
Samples of differentiated cells derived from human embryonic stem cells, as treated with 0.45 M glycerol (approximately equivalent to 710 mOsm/kg) or 0.6 M glycerol (approximately equivalent to 870 mOsm/kg), were examined for their morphology under the culture conditions. […] The cell death inducing effect was noticeable when the cells were exposed to glycerol for 10 hours and longer (FIG. 14).

The nature of series [2]: Saccharide concentration and osmotic pressure of hypertonic solutions (measured values). It counts as physicochemical. Here is the method: When the hypertonic solution having an osmotic pressure of 370 mOsm/kg or higher is prepared by adding a saccharide to the culture medium, the method of the present invention is characterized in that the hypertonic solution contains the saccharide in 0.1-1 M (mol/L), preferably 0.1-0.6 M (mol/L). The relation between the concentration of saccharide (mol/L) and the osmotic pressure (mOsm/kg) can be approximated by a substantially straight line; a hypertonic solution containing 0.1 M saccharide corresponds to one having an osmotic pressure of approximately 370 mOsm/kg and a hypertonic solution containing 1 M saccharide corresponds to one having an osmotic pressure of approximately 1300-1600 mOsm/kg.
Hypertonic solutions were prepared using various saccharides and the relation between the saccharide concentration and the osmotic pressure is shown in the following table for typical saccharides.

For series [3], the system named is human embryonic stem cells. In words: Cell death inducing effect on human embryonic stem cells (TMRM FACS, 5-day adherent culture). The settings on record: 0.45 M, 2 hours. It counts as cell-based. Here is the method:
The human embryonic stem cells were obtained from Stem Cell Research Center, Institute for Frontier Medical Sciences, Kyoto University (ES cell center sponsored by the National Bio-Resource Project) (Suemori, H et al., Biochem. Biophys. Res. Commun., Vol. 345, 2006, pp. 926-932). The cells were cultured basically in accordance with the method described in this document. To be more specific, the human embryonic stem cells were cultured to maintain their undifferentiated state using mouse embryonic fibroblasts (MEF) that had been inactivated for growth by treatment with mitomycin C. The culture medium of F12/DMEM (1:1) (SIGMA; Product No. D6421), supplemented with 20% KO-SERUM (GIBCO), 1.6 mM L-glutamine, 0.1 mM non-essential amino acids (MEM), 0.1 mM β-mercaptoethanol (2-ME; Sigma), 100 IU/ml penicillin, 100 μg/ml streptomycin sulfate, and recombinant human basic fibroblast growth factor (bFGF; Reprotech) was used. Upon passaging, the cells were treated with 0.1% type III collagenase (Wortington) at 37° C. for 10 minutes to separate embryonic stem cell colonies. After passaging, the cells were dispersed with each other using TE (0.25% trypsin (GIBCO) and 1 mM EDTA) and in accordance with a published document (Watanabe, K. et al., Nat. Biotechnol., 2007, 25: 681-686, Epub 2007 May 27), 10 μM of a ROCK inhibitor (Y27632) was added to suppress cell death. At the same time, the mitochondria in the live cells were stained with 50 nM TMRM. Part of the stained cells were treated with an α-MEM culture medium containing 0.45 M mannitol (approximately equivalent to 720 mOsm/kg) for 2, 3 or 4 hours and three samples were prepared from these cells; the rest of the stained cells were treated with a mannitol-free α-MEM culture medium for 2 hours and a sample was prepared from these cells as a control. In the control, cells were aggregated with each other to make masses, so before FACS analysis, the treated groups and the control were given another treatment with trypsin and EDTA to disperse the cells. The cells treated with mannitol for 2, 3 or 4 hours and the control cells were analyzed by FACS for the level of mitochondrial membrane potential on the basis of the fluorescent intensity of TMRM to check the state of survival of the stem cells; the results are shown in FIG. 7. […] In addition, the TMRM-stained cells were photographed, both for the case of 2-h treatment with mannitol and for the control (FIG. 8)). […] Changes in the mitochondrial membrane potential were observed using the experimental technique of Example 5, provided that the human embryonic stem cells were treated not with mannitol, but with 0.45 M of various other saccharides (sugar alcohols: sorbitol and xylitol; sugars: sucrose and glucose; betaines: trimethylglycine) (approximately equivalent to 750-780 mOsm/kg) for 2 hours.

Where [4] appears, read: saccharide concentration 0.45 M in culture medium.
[5] abbreviates: saccharide concentration 0.6 M in culture medium.
Where [6] appears, read: saccharide concentration 0.9 M in culture medium.

Take `OCC(O)CO` [glycerol]: in series [1], the “Exposure time at which the cell death inducing effect was noticeable” value was not below 10 h. Further, in series [1], the “State of differentiated cells other than cardiomyocytes (morphology)” value is “almost all of the differentiated cells other than cardiomyocytes had been dead”. In addition, the Osmotic pressure in series [2] (setting [4]) is approximately 710 mOsm/kg; in series [2] (saccharide concentration 0.45 M in culture medium, listed as Glycerol) it was 706 mOsm/kg; in series [2] (setting [5]), approximately 870 mOsm/kg; in series [2] (saccharide concentration 0.6 M in culture medium, listed as Glycerol), 869 mOsm/kg; in series [2] (setting [6]), 1232 mOsm/kg.
As to `OC[C@@H](O)[C@@H](O)[C@H](O)[C@@H](O)CO` [sorbitol], the Osmotic pressure in series [2] (setting [4]) was 748 mOsm/kg; in series [2] (setting [5]) it was 922 mOsm/kg; in series [2] (setting [6]) it was 1289 mOsm/kg. Moreover, the “Mitochondrial membrane potential (TMRM fluorescence, FACS)” value in series [3] is “all of the cells treated with the above-mentioned saccharides for 2 hours had lost membrane potential”.
On the same counts, the results for `OC[C@H]1O[C@@](CO)(O[C@H]2O[C@H](CO)[C@@H](O)[C@H](O)[C@H]2O)[C@@H](O)[C@@H]1O` [sucrose] are 779 mOsm/kg, 988 mOsm/kg, 1496 mOsm/kg and “all of the cells treated with the above-mentioned saccharides for 2 hours had lost membrane potential”.
For `C[N+](C)(C)CC(=O)[O-]` [trimethylglycine], in that order: 763 mOsm/kg, 965 mOsm/kg, 1421 mOsm/kg and “all of the cells treated with the above-mentioned saccharides for 2 hours had lost membrane potential”.
Turning to `OC[C@@H](O)[C@H](O)[C@@H](O)CO` [xylitol], the values for the Osmotic pressure in series [2] (setting [4]), in series [2] (setting [5]) and in series [2] (setting [6]) were 779 mOsm/kg, 940 mOsm/kg and 1230 mOsm/kg, respectively. The “Mitochondrial membrane potential (TMRM fluorescence, FACS)” value in series [3] was “all of the cells treated with the above-mentioned saccharides for 2 hours had lost membrane potential”.
